In patent US4400510A, “A-32256 Phenazine antibiotic” (Eli Lilly and Company, priority 1981, dated 1983):
Structures can show the parent of a compound that is named as a salt. Where two headings read alike, the source gives them in different places.

Legend:
[1] = tested on: Peptococcus asaccharolyticus; test: agar-dilution MIC vs. anaerobic bacteria; type: cell-based; conditions: strain 1302; Table 6; disodium salt, monohydrate
Actinomyces israellii = test: agar-dilution MIC vs. anaerobic bacteria; type: cell-based; conditions: strain W855; Table 6; disodium salt, monohydrate
Method: (§1) The agar-dilution procedure described by the International Collaborative Study (ICS) group was used to determine MIC values.
The MIC was determined by the agar-dilution method.

Bacteroides fragilis [2] = test: agar-dilution MIC vs. Bacteroides species; type: cell-based; conditions: 24 hours, Table 8, disodium salt, monohydrate
Method: as §1
(§2) The MIC values were determined by the agar-dilution method, the endpoints being read 24 hours after incubation, and are recorded in Table 8, which follows.

B. vulgatis = test: agar-dilution MIC vs. Bacteroides species; type: cell-based; conditions: B. vulgatis 1563; 24 hours; Table 8; disodium salt, monohydrate
Method: as §1, §2

B. corrodens = test: agar-dilution MIC vs. Bacteroides species; type: cell-based; conditions: B. corrodens 1874; 24 hours; Table 8; disodium salt, monohydrate
Method: as §1, §2

B. thetaiotaomicron = test: agar-dilution MIC vs. Bacteroides species; type: cell-based; conditions: 24 hours, Table 8, disodium salt, monohydrate
Method: as §1, §2

hygroscopicity = type: physicochemical; conditions: monohydrate, brown powder
Staphylococcus aureus = test: disc-plate screening procedure, zone of inhibition
Clostridium perfringens = test: microbe, parasite or virus in culture; type: cell-based; conditions: strain 81; Table 6; disodium salt, monohydrate
[3] = tested on: Bacteroides melanogenicus; test: agar-dilution MIC vs. anaerobic bacteria; type: cell-based; conditions: Table 6, disodium salt, monohydrate
[4] = tested on: Streptococcus sp. (Group D); test: disc-plate screening procedure, zone of inhibition; conditions: read-out: Zone Diameter
Fusobacterium symbiosum = test: agar-dilution MIC vs. anaerobic bacteria; type: cell-based; conditions: strain 1470; Table 6; disodium salt, monohydrate
Bacteroides vulgatis = test: agar-dilution MIC vs. anaerobic bacteria; type: cell-based; conditions: strain 1211; Table 6; disodium salt, monohydrate
Trichomonas vaginalis = test: broth dilution assay, antitrichomonal activity; type: cell-based; conditions: Trichomonas vaginalis; broth dilution assay; read-out: Minimal Inhibitory Concentration
Propionibacterium acnes = test: agar-dilution MIC vs. anaerobic bacteria; type: cell-based; conditions: strain 79; Table 6; disodium salt, monohydrate
[5] = tested on: Fusobacterium necrophorum; test: agar-dilution MIC vs. anaerobic bacteria; type: cell-based; conditions: strain 6054A; Table 6; disodium salt, monohydrate
Peptococcus constellatus = test: agar-dilution MIC vs. Peptococcus and Peptostreptococcus species; type: cell-based; conditions: Pc. constellatus 1468; Table 9; disodium salt, monohydrate
Method: as §1
(§3) The MIC values were determined by the agar-dilution method, and are recorded in Table 9, which follows.

[6] = tested on: Peptostreptococcus intermedius; test: as above; type: cell-based; conditions: Table 9, disodium salt, monohydrate
Method: as §1, §3

[7] = tested on: Peptococcus asaccharolyticus; test: as above; type: cell-based; conditions: Table 9, disodium salt, monohydrate
Method: as §1, §3

Peptococcus magnus = test: as above; type: cell-based; conditions: Table 9, disodium salt, monohydrate
Method: as §1, §3

Peptococcus prevoti = test: as above; type: cell-based; conditions: Table 9, disodium salt, monohydrate
Method: as §1, §3

[8] = tested on: Peptostreptococcus anaerobius; test: as above; type: cell-based; conditions: Table 9, disodium salt, monohydrate
Method: as §1, §3

Streptococcus pyogenes = test: disc-plate screening procedure, zone of inhibition; conditions: read-out: Zone Diameter
Bacteroides fragilis [9] = test: agar-dilution MIC vs. anaerobic bacteria; type: cell-based; conditions: Table 6, disodium salt, monohydrate
Streptococcus pneumoniae = test: disc-plate screening procedure, zone of inhibition; conditions: read-out: Zone Diameter
Eubacterium aerofaciens = test: agar-dilution MIC vs. anaerobic bacteria; type: cell-based; conditions: strain 1235; Table 6; disodium salt, monohydrate

Compound: Cc1cccc(O)c1C(=O)OC(C)c1cccc2nc3c(C(=O)O)cccc3nc12 (stereo not shown) [A-32256 disodium salt, 6-[1-[(2-hydroxy-6-methylbenzoyl)oxy]ethyl]-1-phenazinecarboxylic acid, disodium salt, monohydrate]
- MIC [1]: ≤ 0.5 µg/mL
- MIC (Actinomyces israellii): ≤ 0.5 µg/mL
- MIC (Bacteroides fragilis [2]; B. fragilis 2): ≤ 0.015 µg/mL
- MIC (Bacteroides fragilis [2]; B. fragilis 9): ≤ 0.015 µg/mL
- MIC (Bacteroides fragilis [2]; B. fragilis 62): ≤ 0.015 µg/mL
- MIC (Bacteroides fragilis [2]; B. fragilis 103): ≤ 0.015 µg/mL
- MIC (Bacteroides fragilis [2]; B. fragilis 104): ≤ 0.015 µg/mL
- MIC (Bacteroides fragilis [2]; B. fragilis 106): ≤ 0.015 µg/mL
- MIC (Bacteroides fragilis [2]; B. fragilis 107): 0.03 µg/mL
- MIC (Bacteroides fragilis [2]; B. fragilis 108): ≤ 0.015 µg/mL
- MIC (Bacteroides fragilis [2]; B. fragilis 110): ≤ 0.015 µg/mL
- MIC (Bacteroides fragilis [2]; B. fragilis 111): 0.03 µg/mL
- MIC (Bacteroides fragilis [2]; B. fragilis 112): ≤ 0.015 µg/mL
- MIC (Bacteroides fragilis [2]; B. fragilis 113): ≤ 0.015 µg/mL
- MIC (Bacteroides fragilis [2]; B. fragilis 1470): ≤ 0.015 µg/mL
- MIC (Bacteroides fragilis [2]; B. fragilis 1877): ≤ 0.015 µg/mL
- MIC (Bacteroides fragilis [2]; V. fragilis 1451 (so in the source)): 0.03 µg/mL
- MIC (B. vulgatis): 0.03 µg/mL
- MIC (B. corrodens): ≤ 0.015 µg/mL
- MIC (B. thetaiotaomicron; B. thetaiotaomicron 1438): 0.03 µg/mL
- MIC (B. thetaiotaomicron; B. thetaiotaomicron 1900A): 0.03 µg/mL
- hygroscopicity (hygroscopicity): hygroscopic
- zone of inhibition at 10 µg/disc (Staphylococcus aureus; read-out: Zone Diameter, S. aureus 3055, benzylpenicillin-susceptible, 10 mcg/disc): 17.8 mm
- zone of inhibition at 100 µg/disc (Staphylococcus aureus; read-out: Zone Diameter, S. aureus 3055, benzylpenicillin-susceptible, 100 mcg/disc): 25.2 mm
- zone of inhibition at 10 µg/disc (Staphylococcus aureus; read-out: Zone Diameter, S. aureus 3074, benzylpenicillin-resistant, 10 mcg/disc): 16.2 mm
- zone of inhibition at 100 µg/disc (Staphylococcus aureus; read-out: Zone Diameter, S. aureus 3074, benzylpenicillin-resistant, 100 mcg/disc): 23.3 mm
- zone of inhibition at 10 µg/disc (Staphylococcus aureus; read-out: Zone Diameter, S. aureus 3130, methicillin-resistant, 10 mcg/disc): 19.8 mm
- zone of inhibition at 100 µg/disc (Staphylococcus aureus; read-out: Zone Diameter, S. aureus 3130, methicillin-resistant, 100 mcg/disc): 26.8 mm
- MIC (Clostridium perfringens): 1.0 µg/mL
- MIC ([3]; strain 1856/28): 32 µg/mL
- MIC ([3]; strain 2736): ≤ 0.5 µg/mL
- zone of inhibition at 10 µg/disc [4]: 15.6 mm
- zone of inhibition at 100 µg/disc [4]: 20.4 mm
- MIC (Fusobacterium symbiosum): ≤ 0.5 µg/mL
- MIC (Bacteroides vulgatis): ≤ 0.5 µg/mL
- MIC (Trichomonas vaginalis): < 0.975 µg/mL
- MIC (Propionibacterium acnes): ≤ 0.5 µg/mL
- MIC [5]: 1.0 µg/mL
- MIC (Peptococcus constellatus): 0.5 µg/mL
- MIC ([6]; Ps. intermedius 1264): ≤ 0.06 µg/mL
- MIC ([6]; Ps. intermedius 1624): ≤ 0.06 µg/mL
- MIC ([7]; Pc. asaccharolyticus 1302): ≤ 0.06 µg/mL
- MIC ([7]; Pc. asaccharolyticus 1344): ≤ 0.06 µg/mL
- MIC (Peptococcus magnus; Pc. magnus 1401): 0.125 µg/mL
- MIC (Peptococcus magnus; Pc. magnus 1421): 0.125 µg/mL
- MIC (Peptococcus magnus; Pc. magnus 1477): 0.125 µg/mL
- MIC (Peptococcus prevoti; Pc. prevoti 1281): 0.125 µg/mL
- MIC (Peptococcus prevoti; Pc. prevoti 1293): 0.125 µg/mL
- MIC (Peptococcus prevoti; Pc. prevoti 1407): 0.5 µg/mL
- MIC ([8]; Ps. anaerobius 8): 0.25 µg/mL
- MIC ([8]; Ps. anaerobius 52): 0.5 µg/mL
- MIC ([8]; Ps. anaerobius 59): ≤ 0.06 µg/mL
- MIC ([8]; Ps. anaerobius 1418): ≤ 0.06 µg/mL
- MIC ([8]; Ps. anaerobius 1428): 0.25 µg/mL
- MIC ([8]; Ps. anaerobius 1451): ≤ 0.06 µg/mL
- MIC ([8]; Ps. anaerobius 1477): 0.125 µg/mL
- zone of inhibition at 10 µg/disc (Streptococcus pyogenes): 17 mm
- zone of inhibition at 100 µg/disc (Streptococcus pyogenes): 21 mm
- MIC (Bacteroides fragilis [9]; strain 111): ≤ 0.5 µg/mL
- MIC (Bacteroides fragilis [9]; strain 1877): ≤ 0.5 µg/mL
- MIC (Bacteroides fragilis [9]; strain 1936B): ≤ 0.5 µg/mL
- zone of inhibition at 10 µg/disc (Streptococcus pneumoniae): 25 mm
- zone of inhibition at 100 µg/disc (Streptococcus pneumoniae): 31 mm
- MIC (Eubacterium aerofaciens): ≤ 0.5 µg/mL
